Results reported in ChEMBL document CHEMBL5107995, “Novel difluoromethylated 1-(phenylsulfonyl)-4-(piperazin-1-yl)-1H-indole derivatives as potent 5-HT6 receptor antagonist with AMDE-improving properties: Design, synthesis, and biological evaluation” (Bioorg Med Chem, 2022).
The source made the active and inactive calls. The rule behind the calls is not given here.

What was measured:
[1] = Cmax in Sprague-Dawley rat at 2 mg/kg, iv measured for 24 hrs by LC-MS/MS analysis; assay type: ADME, organism-based; parameters: time 24 hrs, dose 2 mg/kg, route iv; conditions: in vivo
[2] = AUC (0 to t) in Sprague-Dawley rat at 2 mg/kg, iv measured for 24 hrs by LC-MS/MS analysis; assay type: ADME, organism-based; parameters: dose 2 mg/kg, time 24 hrs, route iv; conditions: in vivo; for AUC(0-t) at 24 h: Sprague-Dawley
[3] = Half life in Sprague-Dawley rat at 2 mg/kg, iv measured for 24 hrs by LC-MS/MS analysis; assay type: ADME, organism-based; conditions: in vivo
[4] = Volume of distribution at steady state in Sprague-Dawley rat at 2 mg/kg, iv measured for 24 hrs by LC-MS/MS analysis; assay type: ADME, organism-based; conditions: in vivo, read-out: Vdss
[5] = Clearance in Sprague-Dawley rat at 2 mg/kg, iv measured for 24 hrs by LC-MS/MS analysis; assay type: ADME, organism-based; conditions: in vivo
[6] = Cmax in Sprague-Dawley rat at 5 mg/kg, po measured for 24 hrs by LC-MS/MS analysis; assay type: ADME, organism-based; parameters: time 24 hrs, dose 5 mg/kg, route po; conditions: in vivo
[7] = AUC (0 to t) in Sprague-Dawley rat at 5 mg/kg, po measured for 24 hrs by LC-MS/MS analysis; assay type: ADME, organism-based; parameters: time 24 hrs, dose 5 mg/kg, route po; conditions: in vivo; for AUC(0-t) at 24 h: Sprague-Dawley
[8] = Half life in Sprague-Dawley rat at 5 mg/kg, po measured for 24 hrs by LC-MS/MS analysis; assay type: ADME, organism-based; conditions: in vivo
[9] = Oral bioavailability in Sprague-Dawley rat at 5 mg/kg measured for 24 hrs by LC-MS/MS analysis; assay type: ADME, organism-based; conditions: in vivo; for bioavailability: Sprague-Dawley
[10] = Drug concentration in Sprague-Dawley rat plasma at 1 mg/kg, iv measured after 15 mins by LC-MS/MS analysis; assay type: ADME, organism-based
[11] = Drug concentration in Sprague-Dawley rat plasma at 1 mg/kg, iv measured after 45 mins by LC-MS/MS analysis; assay type: ADME, organism-based
[12] = Drug concentration in Sprague-Dawley rat plasma at 1 mg/kg, iv measured after 75 mins by LC-MS/MS analysis; assay type: ADME, organism-based
[13] = Drug concentration in Sprague-Dawley rat brain at 1 mg/kg, iv measured after 15 mins by LC-MS/MS analysis; assay type: ADME, organism-based; conditions: read-out: Ct
[14] = Drug concentration in Sprague-Dawley rat brain at 1 mg/kg, iv measured after 45 mins by LC-MS/MS analysis; assay type: ADME, organism-based; conditions: read-out: Ct
[15] = Drug concentration in Sprague-Dawley rat brain at 1 mg/kg, iv measured after 75 mins by LC-MS/MS analysis; assay type: ADME, organism-based; conditions: read-out: Ct
[16] = Ratio of drug concentration in Sprague-Dawley rat brain to plasma at 1 mg/kg, iv measured after 15 mins by LC-MS/MS analysis; assay type: ADME, organism-based; conditions: brain and plasma, read-out: BPR
[17] = Ratio of drug concentration in Sprague-Dawley rat brain to plasma at 1 mg/kg, iv measured after 45 mins by LC-MS/MS analysis; assay type: ADME, organism-based; conditions: brain and plasma, read-out: BPR
[18] = Ratio of drug concentration in Sprague-Dawley rat brain to plasma at 1 mg/kg, iv measured after 75 mins by LC-MS/MS analysis; assay type: ADME, organism-based; conditions: brain and plasma, read-out: BPR
Rattus norvegicus = experiment: Cognitive enhancing effect in Wistar rat model of scopolamine-induced cognitive impairment assessed as rescue of loss of preference for new object at 3 to 5 mg/kg, ip administered as single dose for 30 mins followed by scopolamine addition and measured after 30 mins by Novel object recognition assay; assay type: functional, organism-based; conditions: dose 3-5 mg/kg, time 1.0 hrs
Mus musculus = experiment: Cognitive enhancing effect in C57BL/6J mouse model of scopolamine-induced memory deficit assessed as reduction in incubation period of mouse entering into dark compartment at 10 mg/kg, ip pretreated for 30 mins followed by scopolamine addition and measured after 30 mins by step-through passive avoidance test; assay type: functional, organism-based; conditions: time 1.0 hrs
[19] = In vivo antagonist activity at 5-HT6R in Sprague-Dawley rat assessed as increase in intracerebral hippocampal acetylcholine level at 1.5 mg/kg, ip pretreated for 30 mins followed by donepezil addition and measured every 20 mins for 360 mins by LC-MS/MS analysis relative to control; assay type: functional; parameters: scale not given: the % may be the effect or the level left; conditions: time 390 min, 6.5 h
[20] = In vivo antagonist activity at 5-HT6R in Sprague-Dawley rat assessed as increase in intracerebral hippocampal acetylcholine level at 5 mg/kg, ip pretreated for 30 mins followed by donepezil addition and measured every 20 mins for 360 mins by LC-MS/MS analysis relative to control; assay type: functional; parameters: scale not given: the % may be the effect or the level left; conditions: time 390 min, 6.5 h
[21] = biological target: 5-hydroxytryptamine receptor 6 (Homo sapiens, UniProt P50406); experiment: Displacement of [3H]-LSD from human 5HT6 receptor expressed in CHO cells assessed as inhibition constant incubated for 120 mins by liquid scintillation counting analysis; assay type: cell-based
Sequence of 5-hydroxytryptamine receptor 6 (P50406 whole entry): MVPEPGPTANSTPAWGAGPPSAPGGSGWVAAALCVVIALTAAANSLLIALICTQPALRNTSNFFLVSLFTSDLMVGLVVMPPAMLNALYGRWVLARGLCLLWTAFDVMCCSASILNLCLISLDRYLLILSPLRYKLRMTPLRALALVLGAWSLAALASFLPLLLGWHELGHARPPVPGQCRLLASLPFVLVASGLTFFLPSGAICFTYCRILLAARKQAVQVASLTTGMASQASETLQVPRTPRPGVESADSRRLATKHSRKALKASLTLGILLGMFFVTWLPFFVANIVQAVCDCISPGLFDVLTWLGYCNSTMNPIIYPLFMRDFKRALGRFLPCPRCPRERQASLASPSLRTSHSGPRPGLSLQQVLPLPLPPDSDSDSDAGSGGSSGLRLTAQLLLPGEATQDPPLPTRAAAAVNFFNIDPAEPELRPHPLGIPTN

Row | Compound | Cmax [1] [ng/mL] | AUC(0-t) at 24 h [2] [ng·h/mL] | half-life [3] [h] | Vd [4] [L/kg] | clearance [5] [mL/min/kg] | Cmax [6] [ng/mL] | AUC(0-t) at 24 h [7] [ng·h/mL] | half-life [8] [h] | bioavailability [9] [%] | concentration at 0.25 h [10] [ng/mL] | concentration at 0.75 h [11] [ng/mL] | concentration at 1.25 h [12] [ng/mL] | concentration at 0.25 h [13] [ng/g] | concentration at 0.75 h [14] [ng/g] | concentration at 1.25 h [15] [ng/g] | Kp at 0.25 h [16] | Kp at 0.75 h [17] | Kp at 1.25 h [18] | further results
1 | O=S(=O)(c1cccc(Cl)c1)n1cc(C(F)F)c2c(N3CCNCC3)cccc21 | 200 | 306 | 4.46 | 26.6 | 82.8 | 44.1 | 348 | 4.39 | 37 | 434 | 127 | 69.6 | 406 | 302 | 224 | 0.94 | 2.37 | 3.21 | –
2 | O=S(=O)(c1cccc(F)c1)n1cc(C(F)F)c2c(N3CCNCC3)cccc21 | 140 | 323 | 2.28 | 18.8 | 93.4 | 51.8 | 267 | 4.33 | 34.4 | 58.1 | 30.3 | 20.8 | 279 | 187 | 128 | 4.81 | 6.17 | 6.16 | Activity (Rattus norvegicus): Active; Activity (Mus musculus): Active; Activity [19]: 235%; Activity [20]: 287%
3 | O=S(=O)(c1ccccc1F)n1cc(C(F)F)c2c(N3CCNCC3)cccc21 | 112 | 272 | 2.54 | 24 | 108 | 33.6 | 132 | 1.98 | 18.5 | – | – | – | – | – | – | – | – | – | –
4 | Cc1cn(S(=O)(=O)c2cccc(F)c2)c2cccc(N3CCNCC3)c12 | 159 | – | 1.4 | 6.7 | 63 | 3.61 | – | – | – | – | – | – | – | – | – | – | – | – | Ki [21]: 0.51 nM; AUCt ([2]; 24 h): 254 ng·h/mL; AUCt ([7]; 24 h): 9.37 ng·h/mL; F ([9]; po, 5 mg/kg, 24 h): 5.95%
5 | O=S(=O)(c1ccccc1Cl)n1cc(C(F)F)c2c(N3CCNCC3)cccc21 | 120 | 242 | 2.55 | 25.8 | 123 | 33.6 | 162 | 3.01 | 29.5 | – | – | – | – | – | – | – | – | – | –
